# Data from patent publication US20040132049A1, “Method for the detection of apoptosis” (priority 2002, published 2004).
# What was measured:
# [1] = test system: nucleolin and PARP-1 proteins in U937 cells; test: Immunoblot of nucleolin and PARP-1 in S-100 and nuclear extracts after UV-induced apoptosis; type: cell-based, Human; details: UV-irradiated U937 cells, 30 minutes pre-incubation with 1 mM 3-ABA
# Protocol: The concentration of extracted proteins was determined using the BioRad DC protein assay kit (BioRad; Hercules, Calif.). […] After 3 washes in PBST, the membrane was incubated with horseradish peroxidase-conjugated goat anti-mouse antibody (Santa Cruz Biotechnology) for 45 minutes at room temperature and then washed 3 times in PBST. Bound antibodies were detected using enhanced chemiluminescence detection. Equal gel loading and transfer of proteins were confirmed by staining membranes with India ink (Bates et al., 1999).
# Some cells received 30 minutes pre-incubation with 1 mM 3-ABA before UV-irradiation.
# [2] = test system: nucleolin in medium of U937 cells; test: Immunoblot of nucleolin shed into serum-free culture medium; type: cell-based, Human
# Protocol: The possibility that nucleolin was shed into the cell culture medium was examined by probing serum-free medium from cultures of U937 cells irradiated with UV light in the absence or presence of 3-ABA. Cell culture and treatment conditions were as in Example 2. To prepare protein from the cell culture medium, the medium was replaced with serum-free medium, and cells were irradiated. Cells were then centrifuged at 1,200 rpm for 10 minutes. Culture medium was collected from untreated and treated cells at 2 hours and 4 hours following irradiation. The medium was filtered (syringe filters with PVDF membranes, Whatman; Clifton, N.J.), and protein present in the medium was concentrated using Centricon (YM-30, Millipore, Bedford, Mass.) according the manufacturer's instructions.
# [3] = test system: U937 cells; test: MTT viable cell assay after UV irradiation; type: cell-based, Human; details: 1 mM 3-ABA pre-treatment, MTT 48 hours after irradiation
# Protocol: Because PARP-1 is involved in both repair of DNA damage and induction of apoptosis, 3-ABA can both increase apoptotic cell death (by preventing repair) or decrease it (by preventing PARP-1 cleavage), depending on conditions. Therefore, the ability of 3-ABA to inhibit cell death under the conditions used here was examined. Cells were subjected to UV irradiation with or without 1 mM 3-ABA pre-treatment. Untreated and irradiated cells were plated at 2×10^4/ml in a 96-well plate. Viable cells were assessed using the MTT (3-[4,5-dimethylthiazol-2-yl]-2,5-diphenyl tetrazolium bromide) assay (Norgaard et al., 2001) 48 hours after irradiation.
# [4] = test system: nucleolin and PARP-1 proteins in U937 cells; test: Immunoblot of nucleolin and PARP-1 in S-100 and nuclear extracts after CPT-induced apoptosis; type: cell-based, Human
# Protocol: Cells were harvested and washed twice with cold PBS. S-100 and nuclear extracts were prepared (Coqueret and Gascan, 2000). Briefly, 100 μl of ice-cold extraction buffer B (10 mM 4-(2-Hydroxyethyl)piperazine-1-ethanesulfonic acid (HEPES; pH 7.9), 1.5 mM MgCl2, 10 mM KCl, 1 mM phenylmethylsulfonyl fluoride (PMSF), 1 μg/ml leupeptin, 1 μg/ml aprotinin) were added to the cells. After three cycles of freeze-thaw, S-100 extracts were recovered as supernatant following centrifugation at 12,000 rpm for 1 minute, and pellets containing nuclei were resuspended in 40 μl of buffer C (20 mM HEPES, pH 7.9, 1.5 mM MgCl2, 420 mM KCl, 0.2 mM EDTA, 25% glycerol, 1 mM PMSF, 1 μg/ml leupeptin, 1 μg/ml aprotinin). Following 30 minutes incubation at 4° C., insoluble material was removed by centrifugation at 12,000 rpm for 5 minutes, and nuclear extracts were collected as supernatant. Extracts were either used immediately or frozen and stored at −80° C.
# The concentration of extracted proteins was determined using the BioRad DC protein assay kit (BioRad; Hercules, Calif.). Samples (10 μg) were incubated in sodium dodecyl sulfate (SDS)-loading buffer (100 mM Tris-HCl, pH 6.8, 200 mM dithiothreitol (DTT), 4% SDS, 0.2% bromophenol blue, 20% glycerol) at 65° C. for 15 minutes, and separated on 10% (for nucleolin detection) or 8% (for PARP-1) polyacrylamide-SDS gels, followed by electroblotting to polyvinylidene difluoride membranes (PVDF, BioRad). After blocking non-specific binding sites for 1 hour in 5% nonfat dried milk in PBST (0.1% polyoxyethylene(20) sorbitan monolaurate (Tween® 20) in PBS), the membrane was incubated for 1 hour at room temperature or overnight at 4° C. with primary antibody (1:1000 anti-nucleolin or anti-PARP-1; Anti-nucleolin antibody (mouse monoclonal IgG1) and anti-PARP-1 antibody (mouse monoclonal IgG2A) were from Santa Cruz Biotechnology; Santa Cruz; Calif.). After 3 washes in PBST, the membrane was incubated with horseradish peroxidase-conjugated goat anti-mouse antibody (Santa Cruz Biotechnology) for 45 minutes at room temperature and then washed 3 times in PBST. Bound antibodies were detected using enhanced chemiluminescence detection. Equal gel loading and transfer of proteins were confirmed by staining membranes with India ink (Bates et al., 1999).
# To determine if the phenomena observed in Example 2 were specific to UV-irradiated cells or a general feature of apoptosis, protein changes in U937 cells treated with 10 μM CPT (prepared as in Example 1) for 24 hours were also examined. The U937 cells were cultured as in Example 2. Apoptosis-induced changes in nucleolin and PARP-1 were examined as in Example 2.
# [5] = test system: U937 cells; test: DNA fragmentation (DNA ladder) assay of apoptosis; type: cell-based, Human; details: 10 μM CPT
# Protocol: Camptothecin (CPT; Sigma Co.; St. Louis, Mo.), an anti-neoplastic topo-isomerase I (Top I) inhibitor, was dissolved in 0.5% (v/v) dimethyl sulfoxide (DMSO)/PBS as stock solutions (stored at −20° C.) and further diluted with water before use. Human U937 cells (myeloid leukemia cell line, from American Type Culture Collection (ATCC); Manassas, Va.) were grown in suspension in RPMI 1640 medium supplemented with 10% heat-inactivated (20 minutes at 65° C.) fetal bovine serum (FBS), 100 U/ml penicillin, 100 μg/ml streptomycin at 37° C. with 5% CO2. For treatment with CPT, exponentially growing U937 cells were treated with 10 μM CPT for 24 hours. For UV irradiation, cells were plated at 5×10^5 cells/ml in dishes (60 mm diameter). The cells were irradiated with UV-light by placing the plate (without a lid) directly in a Stratagene (La Jolla) UV Stratalinker and irradiating for 30 seconds at 254 nm. Some cells received 30 minutes pre-incubation with 1 mM 3-aminobenzamide (ABA); Sigma). Cells were then replaced in the incubator at 37° C. for various times. Apoptosis was observed using a DNA fragmentation assay (Facompre et al., 2001). In this assay, apoptosis is indicated by the appearance of a DNA “ladder”, which is produced by endonuclease cleavage of chromosomal DNA into nucleosomal fragments.
# [6] = test system: nucleolin in U937 cells; test: Immunofluorescence staining of nucleolin in cells; type: cell-based, Human
# Protocol: Cells were collected by centrifugation, washed twice with PBS, and placed on glass slides using a cytospinner. Samples were fixed in 4% paraformaldehyde in PBS for 15 minutes at room temperature and then permeabilized with 0.2% Triton X-100 in PBS for 10 minutes. After two washes with PBS, nonspecific antibody binding sites were blocked by 1 hour incubation at room temperature with 5% normal goat serum in PBS. After 3 washes with PBS, slides were incubated in primary antibody (1:100 anti-mAb IgG1; Santa Cruz Biotechnology) for 1 hour at room temperature then washed 3 times in PBS. Samples were incubated with Alexa-488-labeled secondary antibodies (diluted 1:500 in blocking buffer) for 1 hour at room temperature. Slides were washed 3 times in PBS, were observed using an Olympus BX60F fluorescence microscope and photographed using an Olympus DPIO camera.
# Untreated, UV-irradiated, and 10 μM CPT-treated U937 cells were examined using the above staining method. Culture and treatment conditions were as in Example 2. […] Moreover, there was a dramatic redistribution of nucleolin in the apoptotic nuclei. In untreated cells, nucleolin was predominantly located in the intensely stained nucleoli (FIG. 1, panels A and D), whereas 24 hours after UV irradiation, nucleolin was distributed throughout the nucleolplasm in a speckled pattern (FIG. 1, panels B and E). […]
# [7] = target: plasma membrane nucleolin (Homo sapiens, UniProt P19338); parameters: key: 1: Indicates a good plasma membrane nucleolin-binding GRO.; 2: Indicates a nucleolin control (non-plasma membrane nucleolin binding); details: superscript on GRO name in Table 2; cited from earlier work
# [8] = U937 cells, 10 μM CPT for 24 hours
# plasma membrane nucleolin, sequence (P19338 whole entry): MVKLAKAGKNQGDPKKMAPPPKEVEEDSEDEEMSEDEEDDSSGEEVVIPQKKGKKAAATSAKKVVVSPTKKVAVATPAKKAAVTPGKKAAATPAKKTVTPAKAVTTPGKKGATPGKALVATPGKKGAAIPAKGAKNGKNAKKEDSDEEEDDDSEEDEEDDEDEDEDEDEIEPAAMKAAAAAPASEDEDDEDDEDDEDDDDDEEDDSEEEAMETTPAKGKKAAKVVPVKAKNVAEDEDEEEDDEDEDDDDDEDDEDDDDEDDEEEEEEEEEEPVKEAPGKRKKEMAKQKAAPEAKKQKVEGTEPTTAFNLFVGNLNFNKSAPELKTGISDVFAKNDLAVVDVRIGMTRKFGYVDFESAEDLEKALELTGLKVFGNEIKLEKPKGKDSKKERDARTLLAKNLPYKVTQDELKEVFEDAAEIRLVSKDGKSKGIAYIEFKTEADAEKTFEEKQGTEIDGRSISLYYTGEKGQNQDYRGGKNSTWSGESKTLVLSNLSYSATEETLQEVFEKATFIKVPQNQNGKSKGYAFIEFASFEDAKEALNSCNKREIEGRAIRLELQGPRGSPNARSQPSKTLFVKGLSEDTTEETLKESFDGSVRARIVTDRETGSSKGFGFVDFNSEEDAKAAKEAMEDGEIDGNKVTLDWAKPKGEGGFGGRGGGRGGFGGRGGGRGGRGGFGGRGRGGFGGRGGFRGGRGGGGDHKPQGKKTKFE
compound,measurement,setting,value
"NC(=O)c1cccc(N)c1 [3-ABA, 3-aminobenzamide]",PARP-1 cleavage,[1],abrogation of PARP-1 cleavage
same,disappearance of S-100 nucleolin,[1],drastically inhibited the disappearance of S-100 nucleolin
same,loss of nuclear nucleolin,[1],prevented the loss of nuclear nucleolin
same,nucleolin in medium of untreated (non-irradiated) cells,"[2]; U937 cells without UV irradiation, with 3-ABA treatment",almost no nucleolin was detected
same,appearance of full-length nucleolin band in medium after UV irradiation,"[2]; UV-irradiated U937 cells, serum-free medium, with 3-ABA",inhibited
same,reduction of UV-induced cell death,[3],only to a small degree
same,protection from apoptosis-induced changes in nucleolin and PARP-1,"[4]; CPT-treated U937 cells, pre-incubation with 3-ABA",only a small degree of protection
"CC[C@@]1(O)C(=O)OCc2c1cc1n(c2=O)Cc2cc3ccccc3nc2-1 [CPT, Camptothecin]",nuclear nucleolin,[4]; [8],reduced the amount of nuclear nucleolin
same,nucleolin in S-100 fraction,[4]; [8],caused a disappearance of nucleolin from the S-100 fraction
same,PARP-1 cleavage,"[4]; U937 cells, 10 μM CPT, after 4 hours",only partial cleavage
same,induction of apoptosis (DNA ladder),[5],induced apoptosis
same,time at which DNA ladder clearly observed,[5],24 h
same,distribution of nucleolin in nuclei,[6]; U937 cells treated with CPT for 24 hours,the majority of nuclei exhibited a distinct pattern of staining
same,overall intensity of nuclear nucleolin staining,"[6]; U937 cells, 10 μM CPT",decreased slightly
"CRO: SEQ ID NO:18 tttcctcctc ctccttctcc tcctcctcc; nucleolin control (DNA TTTCCTCCTCCTCCTTCTCCTCCTCCTCC; listed as DNA, chemistry not given here)",plasma membrane nucleolin binding designation,[7],CRO^2
"GRO15B: SEQ ID NO:8 ttgggggggg tgggt (TTGGGGGGGGTGGGT; listed as DNA, chemistry not given here)",plasma membrane nucleolin binding designation,[7],GRO15B^2
GRO26B: SEQ ID NO:10 ggtggtggtg gttgtggtgg tggtgg,plasma membrane nucleolin binding designation,[7],GRO26B^1
GRO G: SEQ ID NO:25 ggttggtgtg gttgg,plasma membrane nucleolin binding designation,[7],GRO G^1
"GRO H: SEQ ID NO:26 ggggttttgg gg (DNA GGGGTTTTGGGG; listed as DNA, chemistry not given here)",plasma membrane nucleolin binding designation,[7],GRO H^1
"GRO I: SEQ ID NO:27 gggttttggg (DNA GGGTTTTGGG; listed as DNA, chemistry not given here)",plasma membrane nucleolin binding designation,[7],GRO I^1
"GRO J: SEQ ID NO:28 ggggttttgg ggttttgggg ttttgggg (DNA GGGGTTTTGGGGTTTTGGGGTTTTGGGG; listed as DNA, chemistry not given here)",plasma membrane nucleolin binding designation,[7],GRO J^1
"GRO K: SEQ ID NO:29 ttggggttgg ggttggggtt gggg (DNA TTGGGGTTGGGGTTGGGGTTGGGG; listed as DNA, chemistry not given here)",plasma membrane nucleolin binding designation,[7],GRO K^1
"GRO M: SEQ ID NO:31 ggttttggtt ttggttttgg ttttgg (DNA GGTTTTGGTTTTGGTTTTGGTTTTGG; listed as DNA, chemistry not given here)",plasma membrane nucleolin binding designation,[7],GRO M^1
"GRO N: SEQ ID NO:32 tttcctcctc ctccttctcc tcctcctcc; nucleolin control (DNA TTTCCTCCTCCTCCTTCTCCTCCTCCTCC; listed as DNA, chemistry not given here)",plasma membrane nucleolin binding designation,[7],GRO N^2
"GRO O: SEQ ID NO:33 cctcctcctc cttctcctcc tcctcc; nucleolin control (DNA CCTCCTCCTCCTTCTCCTCCTCCTCC; listed as DNA, chemistry not given here)",plasma membrane nucleolin binding designation,[7],GRO O^2
GRO P: SEQ ID NO:34 tggggt; nucleolin control,plasma membrane nucleolin binding designation,[7],GRO P^2
"GRO Q: SEQ ID NO:35 gcatgct; nucleolin control (DNA GCATGCT; listed as DNA, chemistry not given here)",plasma membrane nucleolin binding designation,[7],GRO Q^2
"GRO R: SEQ ID NO:36 gcggtttgcg g; nucleolin control (DNA GCGGTTTGCGG; listed as DNA, chemistry not given here)",plasma membrane nucleolin binding designation,[7],GRO R^2
"GRO S: SEQ ID NO:37 tagg; nucleolin control (DNA TAGG; listed as DNA, chemistry not given here)",plasma membrane nucleolin binding designation,[7],GRO S^2
